Laboratory results taken from article PMC10897598, “TwinF interface inhibitor FP802 stops loss of motor neurons and mitigates disease progression in a mouse model of ALS” (Cell Reports Medicine, 2024).

Legend:
[1] = molecular target: T1, human GluN1/GluN2B NMDARs (Homo sapiens, UniProt Q05586+Q13224); assay: Automated patch clamp, NMDARs in HEK293 cells; type: cell-based; details: +40 mV; glycine 100 μM plus NMDA 40 μM; stable HEK293
T1 construct: host or cells: HEK293
Protocol: (§1) Recombinant human GluN1 (UniProt ID Q05586) with GluN2A (Uniprot Q12879) or GluN2B (Uniprot Q13224) NMDARs were stably expressed under tetracycline control in HEK293 cell lines (Charles River). Voltage-clamp recordings were performed using the Sophion Qube platform which performs 384 parallel and independent patch-clamp recordings with digitally controlled microfluidics (Tecan D300) on a disposable single-hole or multi-hole QChip. The following extracellular solution was used: 145 mM NaCl, 4 mM KCl, 10 mM HEPES, 10 mM glucose, 2 mM CaCl2, 1 mM MgCl2; pH 7.4. The following intracellular solution was used: 70 mM CsF, 70 mM CsCl, 10 mM HEPES, 1 mM EGTA; 316 mOsm, pH 7.2. For analysis of channel activation kinetics, cells were held at −70 mV and stepped to −20 mV before the application of glycine (100 μM) plus NMDA (90 μM for GluN1/GluN2A and 40 μM for GluN1/GluN2B). […] Quality control thresholds were set according to the seal resistance (minimum […]), and failed experiments were excluded from the analysis. For analysis of steady state agonist IC50 values, voltage steps to +40 mV were performed in the presence and absence of agonists before and after compound application in the same cell. IC50 data were generated from agonist responses as described before.[20]
(§2) Figure S1. Analysis of IC50 values of FP802 for NMDARs in HEK293 cells. […] The effects of FP802 on NMDARs were evaluated at +40 […]

[2] = molecular target: T2, human GluN1/GluN2A NMDARs (Homo sapiens, UniProt Q05586+Q12879); assay: Automated patch clamp, NMDARs in HEK293 cells; type: cell-based; details: +40 mV; glycine 100 μM plus NMDA 90 μM; stable HEK293
T2 construct: host or cells: HEK293
Protocol: as §1, §2

[3] = tested on: primary mouse cortical neurons; assay: Glutamate neurotoxicity assay in primary cortical neurons; type: cell-based; details: Cortical neurone, 20 μM glutamate, compound added 30 min prior, nuclear mCherry-positive neurons, read-out: IC50, protective activity against glutamate-mediated neurotoxicity
Protocol: On DIV10, vehicle (DMSO) or FP802 were added to the primary cortical cultures 30 min prior to glutamate insult. Images were acquired following the glutamate application for 24 h with 2 h intervals, where 9 images were obtained via a 20x objective for each condition at each time point with IncuCyte S3 Live-Cell Analysis System (Sartorius AG, Germany).

[4] = Serum clinical chemistry of treated SOD1G93A mice; type: in vivo, mouse; details: 40 mg/kg/day s.c. pump
Protocol: All hematology and most serum clinical chemistry analyses were carried out by IDEXX Laboratories, Germany. The neurofilament light chain levels in serum were determined by PBL Assay Science (USA) using the Simoa NF-light Advantage Kit (Quanterix Cat #103186).
Vehicle FP802 n Significance 95% Interval
Table S3. Clinical chemistry serum parameters of SOD1G93A mice treated with vehicle or FP802.
FP802 delivered with a subcutaneously implanted ALZET osmotic pump at 40 mg/kg/day for 4 weeks starting at
References were from Charles River Laboratories datasheets for C57BL6 mice. Related to Figure 2.

T2 sequence (Q12879 23-1464, other chains not shown): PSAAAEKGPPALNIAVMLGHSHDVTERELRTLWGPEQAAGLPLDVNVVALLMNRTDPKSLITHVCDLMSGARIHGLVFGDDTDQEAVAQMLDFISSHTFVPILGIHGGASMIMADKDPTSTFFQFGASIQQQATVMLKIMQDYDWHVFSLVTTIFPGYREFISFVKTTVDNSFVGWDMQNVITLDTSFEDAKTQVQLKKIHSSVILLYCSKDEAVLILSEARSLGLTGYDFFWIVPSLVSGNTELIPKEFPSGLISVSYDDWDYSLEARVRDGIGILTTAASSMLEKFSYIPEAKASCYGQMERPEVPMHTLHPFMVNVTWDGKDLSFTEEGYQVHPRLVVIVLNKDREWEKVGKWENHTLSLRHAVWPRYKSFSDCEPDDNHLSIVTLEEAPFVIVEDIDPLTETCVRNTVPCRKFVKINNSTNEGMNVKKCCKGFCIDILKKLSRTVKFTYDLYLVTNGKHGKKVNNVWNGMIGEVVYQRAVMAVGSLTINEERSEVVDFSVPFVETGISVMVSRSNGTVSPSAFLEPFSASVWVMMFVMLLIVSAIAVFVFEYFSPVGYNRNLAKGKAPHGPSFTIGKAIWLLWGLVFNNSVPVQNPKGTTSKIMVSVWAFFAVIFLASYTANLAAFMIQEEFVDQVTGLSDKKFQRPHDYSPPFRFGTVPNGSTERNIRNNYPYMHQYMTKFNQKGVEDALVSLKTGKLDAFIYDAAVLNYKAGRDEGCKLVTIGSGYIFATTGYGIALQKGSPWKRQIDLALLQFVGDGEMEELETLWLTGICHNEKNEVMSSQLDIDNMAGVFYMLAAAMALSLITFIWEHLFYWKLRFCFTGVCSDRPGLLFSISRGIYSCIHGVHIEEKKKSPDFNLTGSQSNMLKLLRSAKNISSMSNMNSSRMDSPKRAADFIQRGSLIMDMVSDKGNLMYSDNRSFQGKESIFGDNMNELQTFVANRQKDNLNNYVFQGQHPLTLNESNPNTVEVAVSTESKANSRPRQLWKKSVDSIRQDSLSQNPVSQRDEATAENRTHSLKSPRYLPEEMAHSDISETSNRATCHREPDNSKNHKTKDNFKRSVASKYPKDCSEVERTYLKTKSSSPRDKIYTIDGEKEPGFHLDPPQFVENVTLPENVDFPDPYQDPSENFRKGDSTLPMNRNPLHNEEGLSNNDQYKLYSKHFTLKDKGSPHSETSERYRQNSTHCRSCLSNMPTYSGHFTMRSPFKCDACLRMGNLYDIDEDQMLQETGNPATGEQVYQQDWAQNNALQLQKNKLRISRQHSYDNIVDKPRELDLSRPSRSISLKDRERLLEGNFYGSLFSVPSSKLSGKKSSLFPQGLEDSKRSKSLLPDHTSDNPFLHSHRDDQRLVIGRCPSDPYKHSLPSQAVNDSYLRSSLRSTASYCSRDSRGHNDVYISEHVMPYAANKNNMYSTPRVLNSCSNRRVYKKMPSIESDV
T1 sequence (Q13224 27-1484, other chains not shown): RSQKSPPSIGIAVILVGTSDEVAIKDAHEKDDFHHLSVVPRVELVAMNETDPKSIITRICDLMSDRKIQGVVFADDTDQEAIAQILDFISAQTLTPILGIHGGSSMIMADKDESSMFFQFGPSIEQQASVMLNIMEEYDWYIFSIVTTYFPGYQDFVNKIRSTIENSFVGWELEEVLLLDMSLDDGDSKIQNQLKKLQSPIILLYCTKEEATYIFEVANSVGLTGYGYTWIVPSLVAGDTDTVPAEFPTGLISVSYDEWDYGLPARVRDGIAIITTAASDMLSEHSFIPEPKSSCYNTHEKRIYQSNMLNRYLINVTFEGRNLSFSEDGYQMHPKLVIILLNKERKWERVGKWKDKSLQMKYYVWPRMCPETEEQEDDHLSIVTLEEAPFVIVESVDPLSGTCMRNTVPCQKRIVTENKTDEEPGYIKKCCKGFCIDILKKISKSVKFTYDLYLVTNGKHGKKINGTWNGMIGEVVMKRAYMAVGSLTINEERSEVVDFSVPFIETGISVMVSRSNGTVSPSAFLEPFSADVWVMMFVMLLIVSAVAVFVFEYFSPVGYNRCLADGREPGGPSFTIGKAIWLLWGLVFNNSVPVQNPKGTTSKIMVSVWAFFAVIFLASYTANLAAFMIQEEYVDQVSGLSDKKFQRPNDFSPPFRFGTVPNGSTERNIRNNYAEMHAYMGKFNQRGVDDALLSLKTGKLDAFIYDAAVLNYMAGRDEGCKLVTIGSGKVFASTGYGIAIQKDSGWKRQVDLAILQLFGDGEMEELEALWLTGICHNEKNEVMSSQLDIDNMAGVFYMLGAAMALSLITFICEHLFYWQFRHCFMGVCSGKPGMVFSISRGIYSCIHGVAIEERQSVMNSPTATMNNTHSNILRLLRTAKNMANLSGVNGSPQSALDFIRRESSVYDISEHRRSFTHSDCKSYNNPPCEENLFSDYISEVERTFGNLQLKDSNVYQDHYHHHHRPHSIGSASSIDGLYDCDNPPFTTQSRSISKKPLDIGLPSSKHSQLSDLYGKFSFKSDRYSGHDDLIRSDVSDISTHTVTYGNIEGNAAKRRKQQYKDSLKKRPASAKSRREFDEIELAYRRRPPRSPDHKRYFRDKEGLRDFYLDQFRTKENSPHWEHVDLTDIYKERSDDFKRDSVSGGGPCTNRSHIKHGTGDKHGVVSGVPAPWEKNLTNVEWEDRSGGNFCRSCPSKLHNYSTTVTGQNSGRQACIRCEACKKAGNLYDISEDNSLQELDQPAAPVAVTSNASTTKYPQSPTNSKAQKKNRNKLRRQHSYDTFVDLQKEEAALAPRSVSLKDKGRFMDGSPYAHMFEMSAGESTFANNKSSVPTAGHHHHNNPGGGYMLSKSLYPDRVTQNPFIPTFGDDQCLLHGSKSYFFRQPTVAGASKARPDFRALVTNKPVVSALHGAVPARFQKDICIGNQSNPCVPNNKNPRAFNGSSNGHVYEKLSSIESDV

For `CCN(CCN)Cc1cccc(Cl)c1` [FP802], the IC50 [1] was > 250 µM, the IC50 [2] was > 250 µM and the IC50 [3] was 8.7 µM. The “adverse effects on the serum clinical chemistry parameters” value ([4]; 4 weeks) was “no adverse effects”, the ALT ([4]; serum, 4 weeks) was 32.60 ± 8.30 U/L and the AST ([4]; serum, 4 weeks) was 195.20 ± 147.29 U/L. For the same compound, the Alkaline phosphatase ([4]; serum, 4 weeks) was 69.40 ± 6.84 U/L, the Calcium ([4]; serum, 4 weeks) was 2.35 ± 0.06 mmol/L and the Chloride ([4]; serum, 4 weeks) was 111.20 ± 3.03 mmol/L. It also gave a Cholesterol ([4]; serum, 4 weeks) of 2.68 ± 0.60 mmol/L, a Creatine kinase ([4]; serum, 4 weeks) of 1500 ± 1475 U/L and a Creatinine ([4]; serum, 4 weeks) of 9.00 ± 2.16 µmol/L. The GGT ([4]; serum, 4 weeks) was “Not detectable”, the Inorganic phosphate ([4]; serum, 4 weeks) was 3.26 ± 0.18 mmol/L and the LDH ([4]; serum, 4 weeks) was 813.3 ± 474.5 U/L. It also gave a Lipase ([4]; serum, 4 weeks) of 32.80 ± 4.15 U/L, a Potassium ([4]; serum, 4 weeks) of 9.02 ± 3.83 mmol/L and a Sodium ([4]; serum, 4 weeks) of 149.6 ± 3.9 mmol/L. For the same compound, the Total protein ([4]; serum, 4 weeks) was 50.00 ± 0.71 g/L, the Triglycerides ([4]; serum, 4 weeks) was 0.48 ± 0.13 g/L and the “Urea (BUN)” value ([4]; serum, 4 weeks) was 7.58 ± 1.32 mmol/L. The Albumin ([4]; serum, 4 weeks from 15 weeks of age) was 28.00 ± 1.00 g/L.
